Test results taken from PubChem BioAssay (NCI).
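Test compounds were applied to cells in 96-well plates for 48 hours at 5 doses. At the GI50, growth is halved. The concentration for full growth arrest is given as TGI.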

Legend:
Assay in all cases: inhibition of tumour cell growth, NCI panel, 48 h
[1] = test system: SK-OV-3 ovarian
[2] = test system: T-47D breast
[3] = test system: HOP-92 NSCLC
[4] = test system: K-562 leukemia
[5] = test system: OVCAR-3 ovarian
[6] = test system: M14 melanoma
[7] = test system: SK-MEL-2 melanoma
[8] = test system: RXF 393 renal
[9] = test system: HOP-62 NSCLC
[10] = test system: 786-0 renal
[11] = test system: RPMI-8226 leukemia

COc1ccc(OC)c2sc(N3C(=O)/C(=C/c4cccc([N+](=O)[O-])c4)N=C3c3ccccc3)nc12
TGI [1]: > 100 µM | TGI [2]: 64.2 µM | TGI [3]: > 100 µM | TGI [4]: 63.7 µM | TGI [5]: > 100 µM | TGI [6]: > 100 µM | TGI [7]: > 100 µM | TGI [8]: > 100 µM | TGI [9]: > 100 µM | TGI [10]: > 100 µM | TGI [11]: 61.2 µM

O=S1(=O)c2cnccc2NC(=NCc2ccccc2)N1c1ccccc1
TGI [1]: > 100 µM | TGI [2]: > 100 µM | TGI [3]: > 100 µM | TGI [4]: > 100 µM | TGI [5]: > 100 µM | TGI [6]: > 100 µM | TGI [7]: > 100 µM | TGI [8]: > 100 µM | TGI [9]: > 100 µM | TGI [10]: > 100 µM | TGI [11]: 58.8 µM

CC1=NNC(=O)C1C1CC(c2c[nH]c3ccccc23)=NN=C1Cl (centres undefined)
TGI [1]: > 100 µM | TGI [2]: > 100 µM | TGI [3]: > 100 µM | TGI [4]: 88.6 µM | TGI [5]: > 100 µM | TGI [6]: > 100 µM | TGI [7]: > 100 µM | TGI [8]: > 100 µM | TGI [9]: > 100 µM | TGI [10]: > 100 µM | TGI [11]: 81.6 µM

C[C@H]1OC(=O)[C@@H]2N=NN(Cc3ccccc3)[C@H]12
TGI [1]: > 100 µM | TGI [2]: > 100 µM | TGI [3]: > 100 µM | TGI [4]: > 100 µM | TGI [5]: > 100 µM | TGI [6]: > 100 µM | TGI [7]: > 100 µM | TGI [8]: > 100 µM | TGI [9]: > 100 µM | TGI [10]: > 100 µM | TGI [11]: > 100 µM

N#Cc1c(-c2ccccc2)c2c([nH]c1=O)-c1cc([N+](=O)[O-])ccc1CCC2
TGI [1]: > 100 µM | TGI [2]: 52.2 µM | TGI [3]: 58.9 µM | TGI [4]: > 100 µM | TGI [5]: 45 µM | TGI [6]: 93.4 µM | TGI [7]: 59.3 µM | TGI [8]: 42.3 µM | TGI [9]: 70.2 µM | TGI [10]: > 100 µM | TGI [11]: > 100 µM

C[C@H]1[C@H](C)CC[C@]2(C(=O)OC3OC(CO)C(O)C(O)C3O)CC[C@]3(C)C(=CC[C@@H]4[C@@]5(C)C[C@H]6OC(=O)c7cc(O)c(O)c(O)c7-c7c(cc(O)c(O)c7O)C(=O)O[C@@H]6C(CO)(CO)[C@@H]5CC[C@]43C)[C@H]12 (some centres undefined)
TGI [1]: > 100 µM | TGI [2]: > 100 µM | TGI [3]: > 100 µM | TGI [4]: > 100 µM | TGI [5]: > 71.5 µM | TGI [6]: > 100 µM | TGI [7]: > 100 µM | TGI [8]: > 100 µM | TGI [9]: > 100 µM | TGI [10]: > 52.2 µM | TGI [11]: > 100 µM

Nc1ccc(-c2nn3c(COc4ccc(Cl)cc4)nnc3s2)cc1
TGI [1]: > 100 µM | TGI [2]: > 100 µM | GI50 [3]: 98 µM | TGI [3]: > 100 µM | TGI [4]: > 100 µM | TGI [5]: > 100 µM | TGI [6]: > 100 µM | TGI [7]: > 100 µM | TGI [8]: > 100 µM | GI50 [9]: 20.2 µM | TGI [9]: > 100 µM | TGI [10]: > 100 µM | TGI [11]: > 100 µM

COC1C(O)C(O[C@H]2CC[C@@]3(C)C(CC[C@@H]4[C@@H]3CC[C@]3(C)[C@@H](C(C)OC5OC(CO)C(O)C(O)C5O)CC[C@]43O)C2)OC(C)C1OC1OC(CO)C(O)C(O)C1O (some centres undefined)
TGI [1]: > 100 µM | TGI [2]: > 100 µM | TGI [3]: > 100 µM | TGI [4]: > 100 µM | TGI [5]: > 100 µM | TGI [6]: > 100 µM | TGI [7]: > 100 µM | TGI [8]: > 100 µM | TGI [9]: > 100 µM | TGI [10]: > 100 µM | TGI [11]: > 100 µM

CCNc1ncnc2sc(SCc3ccccc3)nc12
TGI [1]: > 100 µM | TGI [2]: > 100 µM | TGI [3]: 81 µM | TGI [4]: > 100 µM | TGI [5]: > 100 µM | TGI [6]: > 100 µM | TGI [7]: > 100 µM | TGI [8]: > 100 µM | TGI [9]: > 100 µM | TGI [10]: > 100 µM | TGI [11]: > 100 µM

CC(C)/C(Cl)=N/OC(=O)Nc1ccc(OC(F)(F)F)cc1
TGI [1]: 31.9 µM | TGI [2]: 25.8 µM | TGI [3]: 3.71 µM | TGI [4]: 4.15 µM | TGI [5]: 32.6 µM | TGI [6]: 12 µM | TGI [7]: 28.1 µM | TGI [8]: 18.3 µM | TGI [9]: 31.7 µM | TGI [10]: 19.6 µM | TGI [11]: 8.97 µM

CC1(C)CC(C#Cc2ccccc2)CC(C)(C)N1O
TGI [1]: > 100 µM | TGI [2]: 63.8 µM | TGI [3]: 45 µM | TGI [4]: > 100 µM | TGI [5]: 37.4 µM | TGI [6]: 38.2 µM | TGI [7]: 43.6 µM | TGI [8]: 63.4 µM | TGI [9]: 32.7 µM | TGI [10]: 76.7 µM | TGI [11]: 69.1 µM

O=C(O)CN(CC(=O)O)C(C(=O)O)c1ccccc1 (centres undefined)
TGI [1]: > 100 µM | TGI [2]: > 100 µM | TGI [3]: > 100 µM | TGI [4]: > 100 µM | TGI [5]: > 100 µM | TGI [6]: > 100 µM | TGI [7]: > 100 µM | TGI [8]: > 100 µM | TGI [9]: > 100 µM | TGI [10]: > 100 µM | TGI [11]: > 100 µM
